Measurements: patent US10106853B2, “CUL4B as predictive biomarker for cancer treatment” (CORNELL UNIVERSITY, priority 2012, dated 2018)

Tests used:
BT474 cells = assay: XTT assay for cytotoxic response to camptothecin, BT474; assay type: cell-based, Human
Protocol: FIG. 2. CUL4B interacted with Top1 and induced Top1 degradation in the presence of CPT. A) Knockdown of CUL4B impaired CPT-induced Top1 degradation. BT474 cells were infected with lentiviral shCUL4B, shCUL4A or control non-targeting shRNA, and selected for stable CUL4B^k/d or CUL4A^k/d cells upon treatment with puromycin. Following treatment with CPT (50 μM) for 1 hour, cells were replenished with CPT-free fresh medium and incubated at 37° C. for 30 minutes. Top1 degradation was assessed by immunoblotting with an anti-Top1 antibody. Levels of α-tubulin were measured as a loading control. B) Association of CUL4B with Top1 following CPT treatment. […] Top1 degradation was assessed by immunoblotting with the anti-Top1 antibody. Levels of α-tubulin were measured as a loading control. […] Statistical significance in cellular response to CPT between control BT474 cells and CUL4A^k/d or CUL4B^k/d cells were assessed by a two-tailed unpaired student t-test (***: p<0.001). […] Statistical significance in cellular response to camptothecin between control cells and CUL4A^k/d or CUL4B^k/d BT474 cells are assessed by student's t-test.
Synchronized cells were seeded into 96-well microplates. […] The optical density was measured with a microplate reader. […] Data were expressed as the mean±S.E. Difference in the survival ratios between the two cell lines at each concentration point was assessed by the student's T test. […]

CUL4B-Top1 interaction = target: T1, CUL4B-Top1 interaction (Homo sapiens, UniProt P11387); assay: Co-immunoprecipitation of CUL4B and Top1 in BT474 cells; assay type: cell-based; details: BT474 cells in the presence of CPT, crosslinked
T1 construct: Top1 was co-immunoprecipitated with CUL4B in the presence of CPT; host or cells: BT474 human breast cancer cells
T1 sequence (P11387 2-765 limits assumed): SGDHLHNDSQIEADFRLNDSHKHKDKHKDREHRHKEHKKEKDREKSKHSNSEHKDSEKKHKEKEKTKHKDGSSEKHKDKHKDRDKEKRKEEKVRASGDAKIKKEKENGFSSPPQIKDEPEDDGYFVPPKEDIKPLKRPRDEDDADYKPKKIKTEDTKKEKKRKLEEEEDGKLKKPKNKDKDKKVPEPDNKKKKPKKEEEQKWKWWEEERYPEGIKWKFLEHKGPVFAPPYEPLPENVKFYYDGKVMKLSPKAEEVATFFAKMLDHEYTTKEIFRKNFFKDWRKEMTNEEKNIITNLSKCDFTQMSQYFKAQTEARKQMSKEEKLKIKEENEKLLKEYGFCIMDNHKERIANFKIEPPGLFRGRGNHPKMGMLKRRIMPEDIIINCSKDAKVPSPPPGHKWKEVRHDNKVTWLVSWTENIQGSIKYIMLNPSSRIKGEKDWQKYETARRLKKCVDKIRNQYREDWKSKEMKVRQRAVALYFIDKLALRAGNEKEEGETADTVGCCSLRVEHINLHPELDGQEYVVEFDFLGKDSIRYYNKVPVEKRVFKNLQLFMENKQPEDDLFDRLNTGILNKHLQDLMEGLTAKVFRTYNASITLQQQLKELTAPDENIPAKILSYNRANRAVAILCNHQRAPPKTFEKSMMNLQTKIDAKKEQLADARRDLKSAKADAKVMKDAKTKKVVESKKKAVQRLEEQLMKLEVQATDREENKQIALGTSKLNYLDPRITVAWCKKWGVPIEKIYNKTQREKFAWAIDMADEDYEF
T1 sequence (Q13620 whole entry partner): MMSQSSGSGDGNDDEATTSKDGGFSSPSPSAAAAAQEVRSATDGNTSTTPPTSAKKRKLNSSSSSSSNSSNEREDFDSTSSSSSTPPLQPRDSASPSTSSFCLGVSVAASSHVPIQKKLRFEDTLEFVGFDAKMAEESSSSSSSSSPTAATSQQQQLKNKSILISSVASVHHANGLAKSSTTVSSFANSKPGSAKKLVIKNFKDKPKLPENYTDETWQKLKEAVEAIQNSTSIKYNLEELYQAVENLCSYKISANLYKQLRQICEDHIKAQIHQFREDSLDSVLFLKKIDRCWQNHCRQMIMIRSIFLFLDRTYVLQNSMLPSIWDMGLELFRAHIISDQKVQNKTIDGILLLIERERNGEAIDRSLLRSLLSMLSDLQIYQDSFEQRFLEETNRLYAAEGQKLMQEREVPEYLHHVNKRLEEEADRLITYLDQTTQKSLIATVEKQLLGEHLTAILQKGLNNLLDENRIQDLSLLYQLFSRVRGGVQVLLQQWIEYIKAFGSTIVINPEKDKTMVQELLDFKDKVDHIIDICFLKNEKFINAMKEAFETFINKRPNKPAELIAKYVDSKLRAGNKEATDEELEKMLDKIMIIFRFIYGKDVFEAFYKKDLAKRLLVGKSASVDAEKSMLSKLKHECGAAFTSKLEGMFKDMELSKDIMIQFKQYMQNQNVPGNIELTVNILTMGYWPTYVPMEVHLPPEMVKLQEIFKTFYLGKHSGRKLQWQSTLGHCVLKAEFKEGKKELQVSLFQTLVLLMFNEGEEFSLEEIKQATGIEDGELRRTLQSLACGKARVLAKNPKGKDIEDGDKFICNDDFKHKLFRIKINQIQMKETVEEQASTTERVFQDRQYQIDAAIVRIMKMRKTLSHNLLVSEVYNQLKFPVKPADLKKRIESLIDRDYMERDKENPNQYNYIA
Protocol: BT474 cells were infected with lentiviral shCUL4B, shCUL4A or control non-targeting shRNA, and selected for stable CUL4B^k/d or CUL4A^k/d cells upon treatment with puromycin. Following treatment with CPT (50 μM) for 1 hour, cells were replenished with CPT-free fresh medium and incubated at 37° C. for 30 minutes. Top1 degradation was assessed by immunoblotting with an anti-Top1 antibody. Levels of α-tubulin were measured as a loading control. B) Association of CUL4B with Top1 following CPT treatment. BT474 cells were treated with proteosome inhibitor MG132 (15 μM) for 3 hours, and were subjected to crosslinking with 0.2 mM Dithiobis[succinimidyl propionate](DSP) for the last 30 min at room temperature. Cell lysates were prepared, and immunoprecipitated with the anti-Top1 or anti-CUL4B antibodies, and then immunoblotted using antibodies against CUL4B or Top1, respectively. […] Top1 degradation was assessed by immunoblotting with the anti-Top1 antibody. Levels of α-tubulin were measured as a loading control. […] Statistical significance in cellular response to CPT between control BT474 cells and CUL4A^k/d or CUL4B^k/d cells were assessed by a two-tailed unpaired student t-test (***: p<0.001). […] Statistical significance in cellular response to camptothecin between control cells and CUL4A^k/d or CUL4B^k/d BT474 cells are assessed by student's t-test. […]

CC[C@@]1(O)C(=O)OCc2c1cc1n(c2=O)Cc2cc3ccccc3nc2-1 [CPT, (S)-4-ethyl-4-hydroxy-1H-pyrano[3′,4′:6,7]indolizino[1,2-b]quinoline-3,14-(4H, 12H)-dione]
Survival rate of CPT-treated cells (BT474 cells; BT474 cells with knockdown of CUL4A): no effect
Cytotoxic killing by CPT (cell survival) (BT474 cells; BT474 cells with knockdown of CUL4B, CPT three days): sensitized
Association of Top1 with CUL4B (CUL4B-Top1 interaction): co-immunoprecipitated
